Assay results taken from patent US20130331345A1, “PUERARIN HYDRATES, PREPARATION METHODS AND USES THEREOF” (priority 2010, published 2013).

Tests used:
[1] = Accelerated stability test (40° C., RH75%), sealed in penicillin bottles; type: physicochemical; conditions: for Marked content (%) / Property / Related substance (%): accelerated, 40° C.
Experimental: (§1) The sample of the puerarin hydrate above (prepared by method of Example 1) and anhydrous puerarin (anhydrous puerarin was prepared by: drying the hydrate as prepared in Example 1 at 90-105° C. in the presence of phosphorus pentoxide under vacuum for 24-72 hours or more to obtain an anhydrous puerarin, and the water content of anhydrous puerarin was usually lower than 1.0% as measured by Karl Fisher method) were sealed in penicillin bottles to perform accelerated stability test (chromatography conditions: chromatography column: C18 (150 mm×4.6 mm, 5 μm); mobile phase: 0.1% citric acid solution-methanol (75:25); flow rate: 1 ml/min; temperature: room temperature; detection wavelength: 250 nm). […] Hygroscopicity test was performed according to the Pharmacopoeia of the People's Republic of China: about 5 g of anhydrous puerarin and the crystalline hydrate of the present invention were taken, placed in dry watch glasses with constant weight, weighed precisely. Samples were taken separately at 0 h and 48 h of the test at 25° C. and relative humidity of 75%, and hygroscopicity weight gain percentages were calculated.

[2] = Sticking in direct tableting of powder; type: physicochemical; conditions: tableting 200 mg of powder; printed '1-3 times or higher'
Experimental: In addition, the puerarin hydrate of the present invention overcomes the drawback of deliquescent property of anhydrous puerarin, so that it is not necessary to isolate air to prevent adhesion, and has good sliding property, and the manipuility for manufacturing preparations is improved. Anhydrous puerarin has sticking phenomenon when its powder is used for direct tableting. When tableting 200 mg of powder, anhydrous puerarin has a sticking amount 1-3 times or higher than that of puerarin monohydrate.

[3] = Hygroscopicity test according to the Pharmacopoeia of the People's Republic of China; type: physicochemical; conditions: 25° C., relative humidity 75%, 48 h
Experimental: as §1

[4] = tested on: chronic ocular hypertension; test: Effects on chronic ocular hypertension of rabbits (dexamethasone model); type: in vivo; conditions: within 24 hours, puerarin hydrate 1% (W/V), betaxolol 0.5% (W/V)
Experimental: Chronic Ocular Hypertension Models: 32 rabbits, half male and half female, were subjected to sub-conjunctive injection with 0.5 mg of dexamethasone under corneal limbus, once every other day, for consecutive 3 weeks, to obtain chronic ocular hypertension models, then randomly divided into physiological saline group, betaxolol group [0.5% (W/V)], puerarin hydrate group [1% (W/V)]. The maximum decrease of intraocular pressure was measured within 24 hours.

[5] = molecular target: T1, β2 receptor (Cavia porcellus, UniProt Q8K4Z4); conditions: trachea strip of guinea pigs; cited from earlier work
T1 construct: trachea strip β2 receptor of guinea pigs; from tissue; host or cells: guinea pig trachea strip
T1 sequence (Q8K4Z4 whole entry): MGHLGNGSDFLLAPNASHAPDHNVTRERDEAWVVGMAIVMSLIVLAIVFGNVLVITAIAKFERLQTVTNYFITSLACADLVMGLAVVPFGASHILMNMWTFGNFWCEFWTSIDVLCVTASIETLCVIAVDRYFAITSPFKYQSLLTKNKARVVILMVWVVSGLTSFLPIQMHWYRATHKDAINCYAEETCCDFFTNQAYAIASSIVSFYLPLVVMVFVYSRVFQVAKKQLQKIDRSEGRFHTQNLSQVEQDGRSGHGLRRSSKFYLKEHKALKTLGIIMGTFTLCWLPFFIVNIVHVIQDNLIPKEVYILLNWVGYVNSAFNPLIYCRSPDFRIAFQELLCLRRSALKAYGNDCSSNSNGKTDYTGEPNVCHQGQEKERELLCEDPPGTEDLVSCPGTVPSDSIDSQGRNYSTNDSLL

[6] = tested on: sudden deafness; conditions: injection, within 2 weeks after administration; cited from earlier work
[7] = tested on: blood pressure and heart rate; conditions: conscious spontaneously hypertensive rats, intraperitoneal injection; cited from earlier work
[8] = tested on: ethanol intake; conditions: rats, intraperitoneal injection; cited from earlier work
[9] = tested on: β receptor; conditions: cited from earlier work
[10] = tested on: benzodiazepine receptor; conditions: cited from earlier work
[11] = tested on: intraocular pressure; conditions: ocular hypertension rabbit models induced by dexamethasone; cited from earlier work
[12] = tested on: blood pressure; conditions: anesthetized dogs, injection; cited from earlier work
[13] = molecular target: T2, β1 receptor (Cavia porcellus, UniProt H0W3H1); conditions: ex vivo atrial muscle of guinea pigs; cited from earlier work
T2 construct: ex vivo atrial muscle β1 receptor of guinea pigs; from tissue; host or cells: guinea pig atrial muscle, ex vivo
T2 sequence (H0W3H1 1-470): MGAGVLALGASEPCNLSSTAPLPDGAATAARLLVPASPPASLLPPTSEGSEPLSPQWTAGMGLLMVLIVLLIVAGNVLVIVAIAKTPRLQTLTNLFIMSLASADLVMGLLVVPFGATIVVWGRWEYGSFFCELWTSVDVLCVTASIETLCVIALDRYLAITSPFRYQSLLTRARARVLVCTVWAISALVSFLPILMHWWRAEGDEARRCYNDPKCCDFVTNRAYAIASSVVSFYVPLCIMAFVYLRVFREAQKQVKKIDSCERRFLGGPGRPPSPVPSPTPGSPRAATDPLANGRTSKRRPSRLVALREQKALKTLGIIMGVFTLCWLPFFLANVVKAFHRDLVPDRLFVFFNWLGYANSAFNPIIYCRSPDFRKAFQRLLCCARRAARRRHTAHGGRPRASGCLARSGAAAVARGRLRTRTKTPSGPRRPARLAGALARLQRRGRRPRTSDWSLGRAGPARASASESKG

[14] = molecular target: T3, ACE (Rattus norvegicus, UniProt P47820); test: Effects on inhibiting ACE activity (rat blood serum after intraperitoneal injection); type: in vivo, Wistar rats; conditions: rats, 200 mg/kg intraperitoneal
T3 construct: from tissue; host or cells: blood serum of Wistar rats
T3 sequence (P47820 36-1313): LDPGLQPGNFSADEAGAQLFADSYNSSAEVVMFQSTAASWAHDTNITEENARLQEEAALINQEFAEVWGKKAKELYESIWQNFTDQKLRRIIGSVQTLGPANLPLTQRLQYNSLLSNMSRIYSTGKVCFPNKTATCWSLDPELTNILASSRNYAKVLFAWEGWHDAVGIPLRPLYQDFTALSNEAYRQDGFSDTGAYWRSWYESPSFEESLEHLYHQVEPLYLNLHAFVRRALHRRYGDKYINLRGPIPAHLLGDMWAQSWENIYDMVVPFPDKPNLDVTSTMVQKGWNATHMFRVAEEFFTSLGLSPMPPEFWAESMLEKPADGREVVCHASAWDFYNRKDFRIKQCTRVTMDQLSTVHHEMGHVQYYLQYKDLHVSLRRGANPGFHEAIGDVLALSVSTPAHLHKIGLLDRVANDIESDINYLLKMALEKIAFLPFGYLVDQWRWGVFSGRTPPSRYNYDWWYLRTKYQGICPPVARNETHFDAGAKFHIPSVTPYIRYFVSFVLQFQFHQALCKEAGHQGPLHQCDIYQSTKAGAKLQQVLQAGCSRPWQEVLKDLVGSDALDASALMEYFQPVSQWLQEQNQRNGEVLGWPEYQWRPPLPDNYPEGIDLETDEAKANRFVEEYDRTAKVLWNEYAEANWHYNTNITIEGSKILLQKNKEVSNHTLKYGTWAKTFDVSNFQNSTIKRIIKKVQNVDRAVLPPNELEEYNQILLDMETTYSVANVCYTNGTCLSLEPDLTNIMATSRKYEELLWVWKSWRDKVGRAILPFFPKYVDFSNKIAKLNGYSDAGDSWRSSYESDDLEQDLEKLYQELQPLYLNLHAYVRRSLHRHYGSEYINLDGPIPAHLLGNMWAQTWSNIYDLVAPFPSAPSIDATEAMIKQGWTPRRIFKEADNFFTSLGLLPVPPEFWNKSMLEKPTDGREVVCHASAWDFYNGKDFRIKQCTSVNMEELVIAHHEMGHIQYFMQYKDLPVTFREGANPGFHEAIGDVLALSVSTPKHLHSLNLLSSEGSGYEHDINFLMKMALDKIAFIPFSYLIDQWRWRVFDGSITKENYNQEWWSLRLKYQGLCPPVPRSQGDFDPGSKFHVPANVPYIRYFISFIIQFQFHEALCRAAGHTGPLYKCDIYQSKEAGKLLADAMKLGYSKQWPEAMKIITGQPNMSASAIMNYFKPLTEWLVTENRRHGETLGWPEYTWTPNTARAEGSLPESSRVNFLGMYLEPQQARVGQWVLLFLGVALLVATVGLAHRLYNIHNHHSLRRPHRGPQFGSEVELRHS
Experimental: 24 Wistar rats, 280-300 g, were randomly divided into 3 groups, 8 rats per group, one group was control group, other two groups were separately 100 mg/kg, 200 mg/kg dose groups (which was added with cosolvent to form an injectable solution), subjected to intraperitoneal injection, the control group was administered with physiological saline. 60 min after administration, the rats were anesthetized with 1% pentobarbital sodium, subjected to thoracotomy and blood sample was taken from heart, the blood sample stood at room temperature for 30 min, centrifuged under 3500 r/min at low temperature for 10 min, the supernatant was taken and stored at about −65° C., for test. Measurement of ACE activity: referring to document [WANG, Fumin, et al, Chinese Journal of Laboratory Medicine, 1983, 6(3):145-151], the results were subjected to statistical treatment: the results were expressed in x±S, and data were subjected to analysis of variance and t-test.

For O=c1c(-c2ccc(O)cc2)coc2c([C@@H]3O[C@H](CO)[C@@H](O)[C@H](O)[C@H]3O)c(O)ccc12 [Anhydrous puerarin, reference compound], the “Increase of related substance, 6 month results compared to 0 month results” value ([1]; accelerated test 40° C., compared with puerarin monohydrate) was “higher increase”, the “Sticking amount relative to puerarin monohydrate” value [2] was 1-3 times and the “Hygroscopicity compared with the hydrate of the present invention” value [3] was “much higher”. The “In comparison with 0 h, weight gain, %” value [3] was 4.26%.

With CC(C)NCC(O)COc1ccc(CCOCC2CC2)cc1 (stereo not shown) [Betaxolol, reference compound] the “Maximum decrease of intraocular pressure (mmHg)” value (“Maximum decrease” below) [4] was 1.9 mmHg.

In the case of O=c1c(-c2ccc(O)cc2)coc2c([C@@H]3O[C@H](CO)[C@@H](O)[C@H](O)[C@H]3O)c(O)ccc12 [Puerarin, 8-β-D-glucopyranosyl-4′,7-dihydroxylisoflavone], the “Action on β2 receptor” value [5] is given as “relatively great concentration is required”, the “Patients with good state of nail fold microcirculation and improved audition” value [6] is given as 70% and the “Blood pressure and heart rate” value [7] is given as “significantly reduce”. For the same compound, the Ethanol intake [8] was “significantly reduce”, the “Effect on activation function of adrenalin on adenylate cyclase” value [9] was “completely inhibit” and the “Activity at benzodiazepine receptor” value [10] was “antagonist or partial agonist”. For the same compound, the Intraocular pressure [11] was “reduce”, the Blood pressure [12] was “rapid dose-dependent decrease” and the “Action on β1 receptor” value [13] was “significant antagonistic action”.

For O=c1c(-c2ccc(O)cc2)coc2c([C@@H]3O[C@H](CO)[C@@H](O)[C@H](O)[C@H]3O)c(O)ccc12 [Sample 2, puerarin monohydrate], the “Maximum decrease” value ([4]; monohydrate) was 2.4 mmHg.

For O=c1c(-c2ccc(O)cc2)coc2c([C@@H]3O[C@H](CO)[C@@H](O)[C@H](O)[C@H]3O)c(O)ccc12 [Sample 3, puerarin monohydrate], the inhibition at 200 mg/kg ([14]; rat, ip, vs control group, read-out: inhibition rate (%)) was 51% and the “ACE (IU)” value ([14]; blood taken 60 min after administration) was 26.7 ± 6.35 IU.

In the case of O.O=c1c(-c2ccc(O)cc2)coc2c([C@@H]3O[C@H](CO)[C@@H](O)[C@H](O)[C@H]3O)c(O)ccc12.O=c1c(-c2ccc(O)cc2)coc2c([C@@H]3O[C@H](CO)[C@@H](O)[C@H](O)[C@H]3O)c(O)ccc12 [Sample 5, puerarin 0.5 hydrate], the “Marked content (%)” value ([1]; sampling time 0 month) is reported as 99.1%, the Property ([1]; sampling time 0 month) is reported as “off-white powder” and the “Related substance (%)” value ([1]; sampling time 0 month) is reported as less than 2%. For the same compound, the “Marked content (%)” value ([1]; sampling time 1 month) was 99.2%, the Property ([1]; sampling time 1 month) was “off-white powder” and the “Related substance (%)” value ([1]; sampling time 1 month) was less than 2%. The “Marked content (%)” value ([1]; sampling time 2 month) was 99.2%, the Property ([1]; sampling time 2 month) was “off-white powder” and the “Related substance (%)” value ([1]; sampling time 2 month) was less than 2%. For the same compound, the “Marked content (%)” value ([1]; sampling time 3 month) was 99.0%, the Property ([1]; sampling time 3 month) was “off-white powder” and the “Related substance (%)” value ([1]; sampling time 3 month) was less than 2%. For the same compound, the “Marked content (%)” value ([1]; sampling time 6 month) was 98.9%, the Property ([1]; sampling time 6 month) was “off-white powder” and the “Related substance (%)” value ([1]; sampling time 6 month) was less than 2%. The “In comparison with 0 h, weight gain, %” value [3] was 1.51% and the “Maximum decrease” value [4] was 2.5 mmHg.
